Test results from patent publication US20050009730A1, “Treatment of cns disorders using cns target modulators” (priority 2001, published 2005).

Assays:
Histamine, H1 = Histamine, H1 (Homo sapiens, UniProt P35367); test: H1 binding assay by displacement of known standards; conditions: read-out: Receptor Binding Data (Ki nM) H1
Protocol: The following binding assays were performed on the Series 11 compounds described above by displacement of known standards from the H1, M1, M2, and M3 receptors, wherein H1 is a histamine receptor, and M1, M2, and M3 are muscarinic receptors.
The binding studies against the histamine receptor, H1, indicate binding affinity, and therefore the results of the binding assays are an indication of the activity of the compound. […]
The following binding assays were performed on additional compounds described above by displacement of known standards from the H1, M1, M2, and M3 receptors, wherein H1 is a histamine receptor, and M1, M2, and M3 are muscarinic receptors.
The binding assays for H1 was the same as described in Example 10 and the M1, M2, and M3 binding assays are the same as those described in Example 10 for human recombinant expressed cells.

Histamine, H2 = Histamine, H2 (Homo sapiens, UniProt P25021); test: Receptor selectivity binding assay comparison; conditions: 1.0E−6
Sequence of Histamine, H2 (P25021 whole entry): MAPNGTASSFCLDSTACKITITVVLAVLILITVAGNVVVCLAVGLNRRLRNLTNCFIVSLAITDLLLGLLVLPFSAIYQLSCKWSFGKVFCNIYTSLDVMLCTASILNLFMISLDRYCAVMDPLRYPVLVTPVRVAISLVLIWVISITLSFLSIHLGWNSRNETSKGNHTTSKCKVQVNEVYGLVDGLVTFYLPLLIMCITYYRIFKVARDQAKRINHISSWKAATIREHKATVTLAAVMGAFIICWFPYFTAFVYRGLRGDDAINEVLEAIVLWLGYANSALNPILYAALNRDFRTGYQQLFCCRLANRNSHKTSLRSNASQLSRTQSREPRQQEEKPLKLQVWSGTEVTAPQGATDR

[1] = molecular target: T1, Muscarinic, M1 (Human Recombinant) (Homo sapiens, UniProt P11229); test: Receptor selectivity binding assay comparison; conditions: 1.0E−6
T1 sequence (P11229 1-460): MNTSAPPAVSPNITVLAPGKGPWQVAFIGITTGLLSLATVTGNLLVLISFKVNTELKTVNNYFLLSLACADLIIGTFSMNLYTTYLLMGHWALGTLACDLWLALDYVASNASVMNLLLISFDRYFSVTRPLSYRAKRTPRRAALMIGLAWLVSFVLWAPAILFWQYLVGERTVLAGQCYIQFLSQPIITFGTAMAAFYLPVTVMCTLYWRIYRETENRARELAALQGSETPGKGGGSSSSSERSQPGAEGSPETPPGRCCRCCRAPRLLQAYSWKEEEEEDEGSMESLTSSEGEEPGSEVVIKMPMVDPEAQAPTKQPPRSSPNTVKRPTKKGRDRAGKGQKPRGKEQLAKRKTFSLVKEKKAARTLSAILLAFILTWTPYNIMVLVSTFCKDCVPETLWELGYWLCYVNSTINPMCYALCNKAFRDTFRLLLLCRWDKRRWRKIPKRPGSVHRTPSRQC

[2] = molecular target: Norepinephrine Transporter (Homo sapiens, UniProt P23975); test: Receptor selectivity binding assay comparison; conditions: 1.0E−6
Sequence of Norepinephrine Transporter (P23975 whole entry, species assumed): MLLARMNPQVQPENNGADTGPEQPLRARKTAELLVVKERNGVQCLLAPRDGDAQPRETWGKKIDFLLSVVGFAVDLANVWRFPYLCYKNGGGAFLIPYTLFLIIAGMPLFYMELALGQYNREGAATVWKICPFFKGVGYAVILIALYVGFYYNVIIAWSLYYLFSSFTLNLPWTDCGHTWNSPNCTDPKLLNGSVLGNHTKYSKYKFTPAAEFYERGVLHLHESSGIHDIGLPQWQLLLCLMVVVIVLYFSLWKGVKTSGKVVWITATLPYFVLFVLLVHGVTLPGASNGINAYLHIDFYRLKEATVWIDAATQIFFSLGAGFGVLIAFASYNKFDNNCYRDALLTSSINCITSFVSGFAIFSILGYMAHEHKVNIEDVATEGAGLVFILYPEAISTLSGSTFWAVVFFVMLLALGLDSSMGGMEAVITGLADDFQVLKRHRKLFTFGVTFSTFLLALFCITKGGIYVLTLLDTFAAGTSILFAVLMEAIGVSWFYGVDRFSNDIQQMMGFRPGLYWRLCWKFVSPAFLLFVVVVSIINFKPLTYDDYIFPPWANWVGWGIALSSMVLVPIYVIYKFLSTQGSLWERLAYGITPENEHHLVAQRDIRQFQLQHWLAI

HERG = HERG (Homo sapiens, UniProt Q12809)
Sequence of HERG (Q12809 whole entry): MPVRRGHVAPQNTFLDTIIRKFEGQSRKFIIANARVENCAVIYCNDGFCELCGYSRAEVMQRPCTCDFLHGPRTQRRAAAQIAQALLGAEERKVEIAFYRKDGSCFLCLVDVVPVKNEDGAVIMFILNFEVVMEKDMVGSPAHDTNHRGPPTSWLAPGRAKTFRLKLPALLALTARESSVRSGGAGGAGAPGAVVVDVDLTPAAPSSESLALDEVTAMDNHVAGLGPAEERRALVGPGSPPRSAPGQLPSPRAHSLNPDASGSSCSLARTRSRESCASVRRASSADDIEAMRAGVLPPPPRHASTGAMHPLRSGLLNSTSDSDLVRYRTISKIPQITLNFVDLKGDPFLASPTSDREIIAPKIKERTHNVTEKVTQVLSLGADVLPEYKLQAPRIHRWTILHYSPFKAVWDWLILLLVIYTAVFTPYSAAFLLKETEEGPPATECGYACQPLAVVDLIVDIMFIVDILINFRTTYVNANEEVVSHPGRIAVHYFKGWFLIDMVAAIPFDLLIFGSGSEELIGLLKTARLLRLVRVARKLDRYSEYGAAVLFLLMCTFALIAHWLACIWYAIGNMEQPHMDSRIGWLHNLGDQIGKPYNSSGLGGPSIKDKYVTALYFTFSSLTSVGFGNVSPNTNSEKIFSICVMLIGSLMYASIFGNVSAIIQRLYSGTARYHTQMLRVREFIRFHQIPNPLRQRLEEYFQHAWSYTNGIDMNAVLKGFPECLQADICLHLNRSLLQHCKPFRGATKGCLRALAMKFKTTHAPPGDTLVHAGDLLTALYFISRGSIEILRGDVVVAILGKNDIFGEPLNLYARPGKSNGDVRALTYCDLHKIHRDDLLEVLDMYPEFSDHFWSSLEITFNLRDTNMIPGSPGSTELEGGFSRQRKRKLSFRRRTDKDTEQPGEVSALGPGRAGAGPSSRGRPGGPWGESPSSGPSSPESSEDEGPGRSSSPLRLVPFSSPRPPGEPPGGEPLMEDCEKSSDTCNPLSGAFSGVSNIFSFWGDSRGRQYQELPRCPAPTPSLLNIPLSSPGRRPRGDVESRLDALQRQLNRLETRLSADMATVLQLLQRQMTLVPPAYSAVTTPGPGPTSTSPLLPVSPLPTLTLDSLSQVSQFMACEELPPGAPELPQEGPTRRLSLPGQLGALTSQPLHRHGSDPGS

Male Wistar rats = test: Sleep-wakefulness, locomotor activity and body temperature monitoring (SCORE-2000), treatment at CT-18; conditions: 30 mg/kg PO, at CT-18

Sequence of Histamine, H1 (P35367 whole entry): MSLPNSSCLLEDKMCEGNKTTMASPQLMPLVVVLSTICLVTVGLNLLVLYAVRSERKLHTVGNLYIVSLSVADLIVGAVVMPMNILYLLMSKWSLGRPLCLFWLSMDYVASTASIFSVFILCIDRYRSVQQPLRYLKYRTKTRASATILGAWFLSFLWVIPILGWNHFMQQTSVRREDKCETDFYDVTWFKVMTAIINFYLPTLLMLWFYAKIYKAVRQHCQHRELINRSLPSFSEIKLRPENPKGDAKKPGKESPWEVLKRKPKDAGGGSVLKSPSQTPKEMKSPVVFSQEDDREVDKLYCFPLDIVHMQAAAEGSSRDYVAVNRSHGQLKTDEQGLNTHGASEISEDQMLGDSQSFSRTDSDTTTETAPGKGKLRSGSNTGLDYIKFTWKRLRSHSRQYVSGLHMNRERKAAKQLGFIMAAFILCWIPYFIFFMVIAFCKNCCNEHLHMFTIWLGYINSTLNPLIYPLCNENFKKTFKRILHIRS

O=C(O)CCN1CCC(=C2c3ccccc3COc3ccccc32)CC1 [Series 8a]
Ki (Histamine, H1): 62.5 nM | Percent Inhibition, Histamine, H2 (Histamine, H2): 33.4% | Percent Inhibition, Muscarinic, M1 (Human Recombinant) [1]: 3.3% | Percent Inhibition, Norepinephrine Transporter [2]: −3.9% | Percent Inhibition, HERG (HERG): 4% | Average Bout-Length (Male Wistar rats): 12.2 min | Maximum Bout Length (Male Wistar rats): 28.9 min | NREM Accum. (Male Wistar rats): 65.8 min | NREM Peak (Male Wistar rats): 75.5 %/hr | Onset (Male Wistar rats): 65 min
